From patent US6399614B1, “1-(N-phenylaminoalkyl)piperazine derivatives substituted at position 2 of the phenyl ring” (Recordati S.A. Chemical and Pharmaceutical Company, priority 1997, dated 2002)
Read-outs that look alike come from different tables or passages of the source.

Assays:
[1] = target: T1, post-synaptic 5-HT1A receptor (Rattus norvegicus, UniProt P19327); assay: Inhibition of forepaw treading induced by 8-OH-DPAT in rats (post-synaptic antagonism); format: in vivo; settings: for ED50: rat, iv, read-out: Post-synaptic 5-HT1A ID50, heading: Post-synaptic 5-HT1A ID50, dose blocking 50% of forepaw treading induced by 1 mg/kg s.c. 8-OH-DPAT in rats, compound i.v.
T1 construct: from tissue; host or cells: whole animal, male Sprague-Dawley rats
T1 sequence (P19327 1-422): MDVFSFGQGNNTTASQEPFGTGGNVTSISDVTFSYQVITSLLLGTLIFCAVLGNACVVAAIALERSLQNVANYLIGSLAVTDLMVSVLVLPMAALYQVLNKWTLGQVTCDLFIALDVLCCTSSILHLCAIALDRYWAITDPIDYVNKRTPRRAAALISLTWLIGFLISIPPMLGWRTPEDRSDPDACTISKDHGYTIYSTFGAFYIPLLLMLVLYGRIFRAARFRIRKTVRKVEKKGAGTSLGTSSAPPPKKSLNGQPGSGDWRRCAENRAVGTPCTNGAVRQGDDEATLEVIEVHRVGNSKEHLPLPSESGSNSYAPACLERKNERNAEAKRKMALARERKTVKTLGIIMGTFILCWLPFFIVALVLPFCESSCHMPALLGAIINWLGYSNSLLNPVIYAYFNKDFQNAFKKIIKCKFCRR
Procedure: The inhibitory effect of 5-HT1A receptor antagonists on the forepaw treading induced in rats by subcutaneous injection of 8-OH-DPAT was evaluated by the method of Tricklebank (Tricklebank et al., Eur. J.Pharmacol., 117:15, 1985) with minor modifications as described below. Male Sprague-Dawley rats (150-175 g) obtained from Charles River (Italy), were housed in a climate-controlled room and maintained on a 12 h light/dark cycle with free access to food and water. On the day of experiment, rats were placed singly in clear plastic boxes. Rats were treated with reserpine, 1 mg/kg s.c., 18-24 h before the test to deplete intracellular stores of noradrenaline. For evaluation of antagonistic activity, compounds were i.v. administered 16 min before 8-OH-DPAT (1 mg/kg s.c.). Observation sessions of 30 s duration began 3 min after treatment with the agonist and were repeated every 3 min over a period of 15 min. The appearance of the forepaw treading symptom induced by postsynaptic stimulation of the 5HT1A receptors was noted, and its intensity was scored using a ranked intensity scale in which: 0=absent, 1=equivocal, 2=present and 3=intense. Behavioral scores for each treated rat were accumulated over the time course (5 observation periods) and expressed as mean values of 8-10 rats. A linear regression equation was used in order to evaluate ID50 values, defined as the dose of antagonist needed to block 50% of the forepaw treading intensity induced by 1 mg/kg 8-OH-DPAT administered subcutaneously.

[2] = system: urinary bladder; assay: Cystometric parameters (cystometrogram) in conscious rats; format: in vivo, rat; settings: for BVC after treatment / MP after treatment: mean ± S.E.; for change in vivo at 0.3 mg/kg / change in vivo at 1 mg/kg / change in vivo at 0.1 mg/kg: Rattus norvegicus, iv, 0.25 h, after vs before; for change in vivo at 0.3 mg/kg: i.v. 300 μg/kg; for change in vivo at 1 mg/kg: i.v. 1000 μg/kg; for change in vivo at 0.1 mg/kg: i.v. 100 μg/kg
Procedure: Male Sprague Dawley rats (Crl: CDo BR) weighing 250-350 g were used. The animals were housed with free access to food and water and maintained on a forced 12 h alternating light-dark cycle at 22-24° C. for at least one week, except during performance of the experiment. To quantify urodynamic parameters in conscious rats, cystometrographic studies were performed using procedures previously described (Guarneri et al., Pharmacol. Res., 24:175, 1991). […] An approximately 10 mm long midline incision was made in the shaved and cleaned abdominal wall. The urinary bladder was gently freed from adhering tissues, emptied, and then cannulated, via an incision at the dome, with a polyethylene cannula (Portex PP30), which was permanently sutured with silk thread. The cannula was exteriorized through a subcutaneous tunnel in the retroscapular area, where it was connected with a plastic adapter to avoid the risk of removal by the animal. For intravenous (i.v.) injection of test compounds, a PE 50 polyethylene tubing filled with physiological saline was inserted into the jugular vein and exteriorized in the retroscapular area. The rats were utilized exclusively one day after implantation. On the day of the experiment, the rats were placed in Bollman's cages, after a stabilization period of 20 min, and the free tip of the bladder catheter was connected through a T-shaped tube to a pressure transducer (Bentley T 800/Marb P 82) and to a peristaltic pump (Gilson minipuls 2) for a continuous infusion, at the constant rate of 0.1 ml/min, of saline solution into the urinary bladder. The intraluminal pressure signal during infusion was continuously recorded on a polygraph (Battaglia Rangoni KO 380 with ADCl/T amplifier).
Two urodynamic parameters were evaluated: bladder volume capacity (BVC) and micturition pressure (MP). BVC (in ml) is defined as the minimum volume infused after which detrusor contraction (followed by micturition) occurs. MP (in mm Hg) is defined as the maximal intravesical pressure induced by the contraction of detrusor during micturition. Basal BVC and MP values were calculated as the means of the first two recorded cystometrograms. At this point in the assay, the infusion was interrupted and the test compounds were administered. Fifteen minutes after intravenous administration two additional cystometrograms were recorded in each animal and the mean values of the two cystometrographic parameters were calculated. The statistical significance of the differences in urodynamic parameter values was evaluated by Student's t test for paired data.

| fold less active than compound of Example 2, post-synaptic model ([1]; forepaw treading model in rats) | ED50 [1] | Structure (SMILES) | BVC after treatment ([2]; 15 min after i.v. 300 μg/kg) | MP after treatment ([2]; 15 min after i.v. 300 μg/kg) | BVC after treatment ([2]; 15 min after i.v. 1000 μg/kg) | MP after treatment ([2]; 15 min after i.v. 1000 μg/kg) | change in vivo at 0.3 mg/kg ([2]; read-out: BVC % of change) | change in vivo at 0.3 mg/kg ([2]; read-out: MP % of change) | change in vivo at 1 mg/kg ([2]; read-out: BVC % of change) | change in vivo at 1 mg/kg ([2]; read-out: MP % of change) | i.v. dose at which a significant increase in BVC was observed ([2]; conscious rats, i.v.) | effect on MP (in words) ([2]; conscious rats, i.v.) | BVC after treatment ([2]; 15 min after i.v. 100 μg/kg) | MP after treatment ([2]; 15 min after i.v. 100 μg/kg) | change in vivo at 0.1 mg/kg ([2]; read-out: BVC % of change) | change in vivo at 0.1 mg/kg ([2]; read-out: MP % of change) |
| --- | --- | --- | --- | --- | --- | --- | --- | --- | --- | --- | --- | --- | --- | --- | --- | --- |
| at least 10 fold | 0.35 mg/kg | COc1ccccc1N1CCN(CCN(C(=O)C2CCCCC2)c2ccccc2)CC1 [Compound A, 1-(N-phenyl-N-cyclohexylcarbonyl-2-aminoethyl)-4-(2-methoxyphenyl)piperazine, reference compound] | 0.87 ± 0.05 mL | 85.6 ± 11.3 mmHg | 0.97 ± 0.11 mL | 84.1 ± 5.2 mmHg | 7.4% | -5.5% | 24.4% | -6.8% | 1.0 mg/kg |  |  |  |  |  |
|  | 0.036 mg/kg | COc1ccccc1N1CCN(CCN(C(=O)C2CCCCC2)c2ccccc2[N+](=O)[O-])CC1 [Example 2, 1-[N-(2-nitrophenyl)-N-cyclohexylcarbonyl-2-aminoethyl]-4-(2-methoxyphenyl) piperazine] | 0.87 ± 0.10 mL | 80.4 ± 6.5 mmHg | 0.75 ± 0.10 mL | 99.6 ± 11.2 mmHg | 22.5% | -15.7% | 21% | -8.6% | 0.3 mg/kg | slight, albeit significant, decrease in MP |  |  |  |  |
|  | 0.082 mg/kg | O=C(C1CCCCC1)N(CCN1CCN(c2cccc3[nH]ccc23)CC1)c1ccccc1[N+](=O)[O-] [Example 13, 1-[N-(2-nitrophenyl)-N-cyclohexylcarbonyl-2-aminoethyl]-4-(4-indolyl)piperazine] | 0.95 ± 0.12 mL | 65.7 ± 13.8 mmHg |  |  | 30.2% | -10.6% |  |  |  |  | 1.07 ± 0.14 mL | 75.6 ± 13.7 mmHg | 13.4% | -12.5% |
|  | 0.084 mg/kg | COC(=O)c1ccccc1N(CCN1CCN(c2ccccc2OC)CC1)C(=O)C1CCCCC1 [Example 18, 1-[N-(2-methoxycarbonylphenyl)-N-cyclohexylcarbonyl-2-aminoethyl]-4-(2-methoxyphenyl)piperazine] |  |  | 0.89 ± 0.16 mL | 79.3 ± 17.0 mmHg |  |  | 40.3% | -13.5% |  |  | 0.80 ± 0.09 mL | 48.5 ± 4.9 mmHg | 33.3% | -34.3% |
|  | 0.177 mg/kg | COc1ccccc1N1CCN(CCN(C(=O)C2CCCCC2)c2ccccc2OC)CC1 [Example 23, 1-[N-(2-methoxyphenyl)-N-cyclohexylcarbonyl-2-aminoethyl]-4-(2-methoxyphenyl)piperazine] | 0.77 ± 0.03 mL | 86.4 ± 10.0 mmHg | 0.89 ± 0.12 mL | 61.9 ± 8.5 mmHg | 54.3% | -7.6% | 34.5% | -17.1% |  |  |  |  |  |  |
